Assay results as given in ChEMBL document CHEMBL1795331, “Synthesis and biological activity of optically active NCL-1, a lysine-specific demethylase 1 selective inhibitor” (Bioorg Med Chem, 2011).

Assays:
SH-SY5Y = assay: cells; settings: Homo sapiens, 48 h
Description: Growth inhibition of human SH-SY5Y cells after 48 hrs by MTT assay

HeLa = assay: cells; settings: Homo sapiens, 48 h
Description: Growth inhibition of human HeLa cells after 48 hrs by MTT assay

in vitro = settings: human, HEK293 cells
Description: Growth inhibition of human HEK293 cells after 48 hrs by MTT assay

Row | Compound | GI50 (SH-SY5Y) | GI50 (HeLa) | GI50 at 48 h (in vitro)
1 | N[C@@H]1C[C@H]1c1cccc(OCC[C@H](NC(=O)c2ccccc2)C(=O)NCc2ccccc2)c1 | 9 µM | 74 µM | 25 µM
2 | N[C@H]1C[C@@H]1c1cccc(OCC[C@H](NC(=O)c2ccccc2)C(=O)NCc2ccccc2)c1 | 9 µM | 20 µM | 17 µM
